One data set deals with MALME3M cells. The format is cell-based. Particulars: 20 μM, 72-hour treatment. As to the method: (§1) Despite the frequent failure of chemotherapy in patients with melanoma, chemotherapy remains a frontline approach for treatment, especially in many patients who cannot afford immunotherapy or targeted therapy. […] Identifying novel approaches to enhance the efficacy of chemotherapy and targeted therapy agents in melanoma will greatly benefit many cancer patients. […] The IC50 of each drug treatment in each cell clone was calculated using CalcuSyn 2.0.
(§2) The dose effect of dox-induced expression of NGLY1 shRNA in each cell clone was also determined. The IC50 of each drug treatment in each cell clone was calculated using CalcuSyn 2.0. To determine the interaction between NGLY1 knockdown and each anticancer agent, cells were exposed to four-dose combinations of dox and an anticancer agent at a fixed dose ratio. The combination index (CI) value was calculated using CalcuSyn 2.0. CI values of less than 1 are considered a synergistic interaction. […]
(§3) Cells were seeded into 96-well plates (2,500-5,000 cells/well, depending on cell types), incubated overnight, and treated as indicated. […] Reduced MTT was solubilized in DMSO for determination of absorbance at 570 nm. Absorbance of reduced MTS was directly measured in the reaction medium at 490 nm. The relative cell viability in each treatment condition was calculated based on absorbance values.

The test system of another data set is UACC257 cells. The data set is described as follows: Cell viability test (MTT) in UACC257 cells. The format is cell-based, human. Particulars: 20 μM, 72-hour treatment. As to the method: as §1, §2, §3
The target of a further data set is T1, human NGLY1 (Homo sapiens, UniProt Q96IV0).
T1 construct: host or cells: HEK293T
T1 sequence (Q96IV0 1-654): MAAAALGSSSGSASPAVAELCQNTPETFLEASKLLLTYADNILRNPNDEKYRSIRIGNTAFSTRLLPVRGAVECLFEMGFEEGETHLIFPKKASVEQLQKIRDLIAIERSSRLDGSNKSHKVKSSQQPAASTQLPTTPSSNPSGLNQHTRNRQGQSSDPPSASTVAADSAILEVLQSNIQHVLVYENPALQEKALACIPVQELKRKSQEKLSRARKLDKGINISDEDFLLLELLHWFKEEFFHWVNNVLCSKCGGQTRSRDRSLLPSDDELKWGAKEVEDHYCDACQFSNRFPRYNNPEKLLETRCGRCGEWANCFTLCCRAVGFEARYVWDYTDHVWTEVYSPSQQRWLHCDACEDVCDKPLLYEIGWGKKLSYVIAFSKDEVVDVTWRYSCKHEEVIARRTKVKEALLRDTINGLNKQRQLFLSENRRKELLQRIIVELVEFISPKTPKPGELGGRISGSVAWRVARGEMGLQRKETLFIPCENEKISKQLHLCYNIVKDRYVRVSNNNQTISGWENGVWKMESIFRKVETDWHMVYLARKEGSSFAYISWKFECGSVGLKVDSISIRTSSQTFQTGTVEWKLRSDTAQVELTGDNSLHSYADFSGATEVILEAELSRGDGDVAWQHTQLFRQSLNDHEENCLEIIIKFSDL
The data set is described as follows: RNase B deglycosylation assay with recombinant human NGLY1. It counts as biochemical. From the text:
The computational homology model of human NGLY1 core domain was generated and used for studying interactions between NGLY1 and novel small molecules that are designed to covalently modified and inactivate the catalytic site of NGLY1. (FIG. 15A) The most favorable binding pose of Z-VAD-fmk, a short peptide with NGLY1 and caspase inhibitory activity, in the human NGLY1 homology model superimposed to the conformation of Z-VAD-fmk bound to mouse NGLY1 in a co-crystalized structure. […] RNase B (g): glycosylated RNase B. RNase B (dg): deglycosylated RNase B. Veh: vehicle (DMSO) treatment. M: molecular weight marker. Lower panel: the deglycosylation of NFE2L1 altered by the treatment of 20 μM Z-VAD-fmk and 200 μM NM-350 in bortezomib-treated HEK293T cells. The cells were pretreated with vehicle (DMSO), Z-VAD-fmk and NM-350 for 24 hours and subsequently subjected to concomitant treatment with 10 μM bortezomib for an additional 16 hours. Cell lysates reacted with and without 500 units of PNGase F for 2 hours were analyzed using Western blotting. Top arrowhead in lanes 2 and 3: fully glycosylated NFE2L1. Top arrowhead in lane 1: partially glycosylated NFE2L1. Bottom arrowhead: deglycosylated and truncated NFE2L1. […] The cell viability curve of combinatorial treatment was plotted according to the doses of dacarbazine used in the treatment. […] The cell viability curve of combinatorial treatment was plotted according to the doses of bortezomib used in the treatment. All the data of cell viability tests were presented as mean±standard deviation (n=3).
FLAG-tagged human NGLY1 was overexpressed by the transduction of the pLenti expression vector that carries a Myc-DDK-tagged-human NGLY1 open reading frame in HEK293T cells. Anti-FLAG magnetic beads (OriGene Technologies, Rockville, MD) were used to react with the lysate of HEK293T cells overnight at 4° C. in the presence of pan-protease inhibitors to purify the FLAG-tagged NGLY1. The magnetic beads were thoroughly washed using 0.5% Tween 20 in PBS for three times to minimize non-specific binding. The enrichment of recombinant human NGLY1 was checked by Western blotting of NGLY1 in the pull-down fraction. To perform RNase B deglycosylation assays, purified human NGLY1 on an equal volume of magnetic beads was incubated with PBS containing each of the indicated small molecules and control vehicle (DMSO) at 37° C. for 2 hours. The magnetic beads were then collected and resuspended in PBS containing 0.05% NP-40. Each magnetic bead suspension was mixed with 1 ug RNase B (Millipore Sigma, St. Louis, MO) that was pre-denatured using 5 mM DTT in the presence of 8M urea at 42° C. for 1 hour followed by the treatment of 25 mM iodoacetamide at room temperature for 1 hour and buffer exchange into PBS using Zeba 7K MWCO spin columns (Thermo Fisher Scientific, Carlsbad, CA). The mixtures of magnetic bead suspension and denatured RNase B were left at 37° C. for 16 hours. The proteins in each mixture were resolved by SDS-PAGE and visualized using SYPRO Ruby gel stain (Thermo Fisher Scientific, Carlsbad, CA).

The subject of the next data set is NFE2L1. The experiment in a line: Deglycosylation of NFE2L1 in bortezomib-treated HEK293T cells (Western blotting). Particulars: 24 hours pretreatment then 10 μM bortezomib 16 hours. It counts as cell-based. From the text: The computational homology model of human NGLY1 core domain was generated and used for studying interactions between NGLY1 and novel small molecules that are designed to covalently modified and inactivate the catalytic site of NGLY1. (FIG. 15A) The most favorable binding pose of Z-VAD-fmk, a short peptide with NGLY1 and caspase inhibitory activity, in the human NGLY1 homology model superimposed to the conformation of Z-VAD-fmk bound to mouse NGLY1 in a co-crystalized structure. […] RNase B (g): glycosylated RNase B. RNase B (dg): deglycosylated RNase B. Veh: vehicle (DMSO) treatment. M: molecular weight marker. Lower panel: the deglycosylation of NFE2L1 altered by the treatment of 20 μM Z-VAD-fmk and 200 μM NM-350 in bortezomib-treated HEK293T cells. The cells were pretreated with vehicle (DMSO), Z-VAD-fmk and NM-350 for 24 hours and subsequently subjected to concomitant treatment with 10 μM bortezomib for an additional 16 hours. Cell lysates reacted with and without 500 units of PNGase F for 2 hours were analyzed using Western blotting. Top arrowhead in lanes 2 and 3: fully glycosylated NFE2L1. Top arrowhead in lane 1: partially glycosylated NFE2L1. Bottom arrowhead: deglycosylated and truncated NFE2L1. […] The cell viability curve of combinatorial treatment was plotted according to the doses of dacarbazine used in the treatment. […]

The subject of another data set is SK-MEL-2 cells. The data set is described as follows: Cell viability test (MTT) in SK-MEL-2 cells. The format is cell-based, human. As to the method:
as §1, §2, §3

The next data set concerns NGLY1. The data set is described as follows: NGLY1 expression in stable clones of melanoma cells (immunoblotting). The format is cell-based, human. To be noted: stable clones of MALME3M, UACC257 and SK-MEL-2 cells, 48-hour treatment of dox. The text has this: These NGLY1-targeting shRNA sequences and a scrambled (non-targeting) shRNA sequence were cloned into doxycycline (dox)-inducible, polycistronic green fluorescence protein (GFP)-shRNA expression constructs (a pZIP inducible lentiviral vector, TransOMIC). Stable clones have been generated with the shRNA expression constructs in multiple human melanoma cell lines, including MALME3M, UACC257, SK-MEL-2, and COLO829 melanoma cells. […] Similar knockdown effects were found in the stable clones of other melanoma cells with this particular NGLY1 shRNA sequence. […] Similar to human normal fibroblasts, normal melanocytes (FIG. 5D) and keratinocytes appeared to well tolerate NGLY1 knockdown and show no sign of increased cell death. In addition, SK-MEL-2, MALME3M cells that express inducible NGLY1 shRNA presented significant apoptosis, compared to their scrambled RNA-expressing counterparts. The expression of exogenous human NGLY1 in melanoma cells attenuated NGLY1-targeting shRNA-induced apoptosis (FIG. 5E).
The knockdown of NGLY1 expression in melanoma cells was achieved by the transduction of pZIP-TRE3GS lentiviral expression vectors that carry two independent shRNA sequences (Below; TransOMIC Technologies, Huntsville, AL). […] The expression of the shRNA sequences and an open reading frame of the ZsGreen reporter is driven by the TRE3GS doxycycline-inducible promoter. […]

Another data set relates to HepG2 liver cancer cells. The data set is described as follows: Cell morphology of HepG2 cells with NGLY1 knockdown. It counts as cell-based.
The subject of data set [1] is U-251MG glioblastoma cells. The experiment in a line: Cell morphology of U-251MG cells with NGLY1 knockdown. It counts as cell-based.
[2] abbreviates: 2-hour reaction with human NGLY1.

Data on 8 molecules can be found in patent US11779592B2, “Inhibition of NGLY1 for the treatment of cancer” (University of North Texas Health Science Center, priority 2017, dated 2023).

Residues, ends and D or L forms follow the SMILES beside them. *: point of attachment. Cbz = O=C(OCc1ccccc1)*; CH2F = FC*

On to `N.N.[Cl][Pt][Cl]` [cisplatin], for which the “growth and cell death” value in the data set on MALME3M cells and in the data set with UACC257 cells was “moderate growth inhibition without increase of cell death” each time. For the molecule `CCCNC(=O)[C@H](CC(=O)N[C@@H]1O[C@H](COC(C)=O)[C@@H](OC(C)=O)[C@H](OC(C)=O)[C@H]1NC(C)=O)NC(=O)CCl` [NM-350, (2R,3S,4R,5R,6R)-5-Acetamido-2-(acetoxymethyl)-6-((S)-3-(2-chloroacetamido)-4-oxo-4-(propylamino)butanamido)tetrahydro-2H-pyran-3,4-diyl diacetate], the “NGLY1 activity in the deglycosylation of denatured RNase B” value (“NGLY1 activity in the deglycosylation” for short) at human NGLY1 (setting [2]) is listed as “suppressed its activity”. In addition, the “deglycosylation of NFE2L1” value in the data set on NFE2L1 (200 μM) is listed as “clear retention of N-glycans on NFE2L1”. For the same molecule, the “suppression of cell viability in combination” value in the data set with SK-MEL-2 cells (in combination with bortezomib) is “synergistically suppressed the viability”. On to `CCCNC(=O)[C@H](CC(=O)N[C@@H]1O[C@H](COC(C)=O)[C@@H](OC(C)=O)[C@H](OC(C)=O)[C@H]1NC(C)=O)NC(=O)/C=C/CN(C)C` [NM-354, (2R,3S,4R,5R,6R)-5-Acetamido-2-(acetoxymethyl)-6-((S)-3-((E)-4-(dimethylamino)but-2-enamido)-4-oxo-4-(propylamino)butanamido)tetrahydro-2H-pyran-3,4-diyl diacetate], for which the “NGLY1 activity in the deglycosylation” value at human NGLY1 (setting [2]) is reported as “suppressed its activity”. `Cc1ccc(S(=O)(=O)/C=C/C(=O)N[C@@H](CCc2ccccc2)C(=O)NCCC(C)C)cc1` [WRR139, reference compound]: the “NGLY1 activity in the deglycosylation” value at human NGLY1 (2-hour reaction, 5 μM) is on record as “suppressed its activity”. `COC(=O)C[C@H](NC(=O)[C@H](C)NC(=O)[C@@H](NC(=O)OCc1ccccc1)C(C)C)C(=O)CF` [Z-VAD-fmk, reference compound] (Cbz-Val-Ala-Asp(OMe)-CH2F): the “NGLY1 activity in the deglycosylation” value on human NGLY1 (2-hour reaction, 20 μM) is recorded as “suppressed its activity”. Also, the “deglycosylation of NFE2L1” value with NFE2L1 (20 μM) is recorded as “altered”. `C=CC(=O)N[C@@H](CC(=O)N[C@@H]1O[C@H](COC(C)=O)[C@@H](OC(C)=O)[C@H](OC(C)=O)[C@H]1NC(C)=O)C(=O)NCCC` [NM-322, (2R,3S,4R,5R,6R)-5-acetamido-2-(acetoxymethyl)-6-((S)-3-acrylamido-4-oxo-4-(propylamino)butanamido)tetrahydro-2H-pyran-3,4-diyl diacetate]: on human NGLY1 (setting [2]), the “NGLY1 activity in the deglycosylation” value is recorded as “suppressed its activity”. Further, the “suppression of cell viability in combination” value in the data set with SK-MEL-2 cells (in combination with dacarbazine) is “synergistic effect”. For the molecule `C=CS(=O)(=O)N[C@@H](CC(=O)N[C@@H]1O[C@H](COC(C)=O)[C@@H](OC(C)=O)[C@H](OC(C)=O)[C@H]1NC(C)=O)C(=O)NCCC` [NM-348, (2R,3S,4R,5R,6R)-5-Acetamido-2-(acetoxymethyl)-6-((S)-4-oxo-4-(propylamino)-3-(vinylsulfonamido)butanamido)tetrahydro-2H-pyran-3,4-diyl diacetate], on human NGLY1 (setting [2]), the “NGLY1 activity in the deglycosylation” value is “suppressed its activity”.

B1: NGLY1-shRNA647: NGLY1-targeting shRNA sequence (SEQ ID NO: 6), dox-inducible lentiviral vector (nucleic acid)
DNA: AAAGCAUUACUUCGAGACACUAUAGUGAAGCCACAGAUGUAUAGUGUCUCGAAGUAAUGCUUCU
Take B1: the “expression of NGLY1” value in the data set on NGLY1 is listed as “largely suppressed”. The cell morphology result (with HepG2 liver cancer cells; in data set [1]) was “morphology of apoptosis” in each case.
